Test results taken from patent publication US5457099A, “Carbostyril derivatives and antiallergic agent” (Sawai Pharmaceutical Co., Ltd., priority 1992, dated 1995).
Read-outs that look alike come from different tables or passages of the source.

Legend:
blood TXA2 [1] = test: Blood thromboxane (TX)A2 in sensitized guinea pigs; assay type: in vivo, Hartley guinea pigs
Procedure: (§1) Male Wistar rats of 7 weeks old and weighing about 280 g were passively sensitized with rat anti-ovalbumin anti-serum prepared according to the method of Tada and Okumura. Similarly, Hartley guinea pigs of 8 weeks old and weighing about 500 g were passively sensitized with guinea pig anti-ovalbumin antiserum prepared by immunizing with a mixed emulsion of ovalbumin and complete Freund's adjuvant (4.5:5.5) .
(§2) After 24 hours, trachea was incised under urethane ansthetiziation and cannulated with a respirator. Ovalbumin was intravenously administered to elicit the reaction while observing airway resistance according to a modified Konzett and Roessler method. Drugs were orally administered before 1 hour of elicitation of reaction. Blood samples were drawn from artery of rats and guinea pigs before the elicitaiton and after 8 minutes and 15 minutes, respectively, of the elicitation. The obtained blood samples were immediately mixed with 10 mM EDTA disodium and 0.4 mM indomethacin and centrifuged to separate blood plasma. TXB2, a metabolite of TXA2, in the blood plasma was partially purified by C18 column and determined by Enzyme Immunoassay Kit.

[2] = system: experimental asthma in guinea pigs; test: Inhibition of experimental asthma in guinea pigs; assay type: in vivo, Male Hartley guinea pigs; settings: p.o., 1 mg/kg; significance vs. control: * p < 0.05, *** p < 0.001
Procedure: Male Hartley guinea pigs (N=10) were passively sensitized by intravenous injection of guinea pig antiovalbumin antiserum (titer for 3 hours PCA: 16000 times) diluted 5 times with physiological saline at a rate of 0.2 ml/animal. After 24 hours, the animal was fixed at dorsal position under urethane anesthetization and connected with a respirator (Harvard Model 683, respiratory volume: 4-6 ml/respiration; respiratory rate: 40/minute) via an incised tracheal cannula. Then 1 mg/kg Gallamine triethiodide was intravenously administered to stop the spontaneous respiration. […] Oxatomide was administered two hours before the challenge by antigen and the test drug (compound III-2) and Ketotifen were administered orally 1 hour before the challenge.

blood TXA2 [3] = test: Blood thromboxane (TX)A2 in sensitized rats; assay type: in vivo, Male Wistar rats; settings: 1 mg/kg orally
Procedure: as §1, §2

[4] = system: passive cutaneous anaphylaxis (PCA) reaction in rats; test: Inhibition of PCA reaction in rats; assay type: in vivo, Wistar rats; settings: Rattus norvegicus, po; for inhibition in vivo at 10 mg/kg: read-out: Inhibition of PCA in rat
Procedure: (§3) Antiserum was prepared according to the method described in J. Immunol., 106, 1002 (1971). The titer (or highest effective dilution which gave a mean 48 hours PCA response of 5 mm in diameter in a rat) of the antiserum used was 1:200.
Wistar rats were passively sensitized by intracutaneous injection of 0.05 ml antiserum diluted 75 times with physiological saline at two sheared sites of dorsal skin. After 48 hours, 0.5ml/animal of 1% Evans blue-physiological saline containing 2mg ovalbumin was administered into caudal vein to elicit the reaction. After 30 minutes, rats were sacrificed by decapitative bleeding and the dorsal skin was flayed. Dye stuff exuded at the reaction site was extracted according to the method described in Microbiol. Immunol., 22, 89 (1978). Briefly, two circular pieces of sensitized areas and one circular piece of unsensitized area (as the control) were punched at 1.8 cm diameter. The disks were placed in test tubes and treated overnight with 1 ml 1N-KOH at 37° C. Then 9ml 0.6N-H3 PO4 /acetone (5/13) was added and the mixture was thoroughly stirred and centrifuged (3000 rpm, 10 minutes). The supernatant was assayed for absorption at 620 nm. The amount of dye stuff was calculated from the standard curve previously prepared with known amounts of Evance blue. The conditions of sensitization and the amount of antigen were based on Nippon Yakurigaku Zasshi (Japanese Journal of Pharmacology),80, 261 (1982).
Test drugs and Oxatomide as a positive control were administered orally before 1 hour of elicitation through a gastric tube at 1 ml/200g body weight. In the test, groups of 6 to 7 animals and groups of 8 to 9 animals were used for test drugs and control, respectively.

[5] = system: experimental asthma in rats; test: Inhibition of experimental asthma in rats; assay type: in vivo, Wistar rats; settings: Rattus norvegicus, po; for inhibition in vivo at 10 mg/kg: read-out: Inhibition of Experimental Asthma in rat
Procedure: as §3
Wistar rats were passively sensitized by injection into caudal vein of 2.0ml/animal antiserum. After 24 hours, anaphylactic airway contraction caused by administration of antigen was measured by a modified Konzett and Roessler method. Briefly, the animal was fixed at dorsal position under urethane (1.5 g/kg, i.p.) anesthetization and connected with a respirator (Harvard Model 683, respiratory volume: 3-5 ml/respiration; respiratory rate: 72/minute) via an incised tracheal cannula. […] Oxatomide was administered two hours before the test, which is the optimal conditions according to Nippon Yakurigaku Zasshi (Japanese Journal of Pharmacology), 80, 261 (1982), and the other test drugs were orally administered at a rate of 0.2 ml/100 g body weight one hour before the test using a gastric tube. At the end of measurement, the trachea was blocked with a Kocher clamp and the measured values were expressed in percent taking the value at blockage as the maximum contraction (100%).

Male IcR mice = test: Acute toxicity in mice; assay type: in vivo; settings: p.o. and i.p.
Procedure: as §3
(§4) Male IcR mice (SPF) (Nippon SLC, weight:24-32 g) of 4 weeks age were fasted for 5 hours before the test. The test compound (III-2) was administered in the form of a suspension in 0.5% carboxymethylcellulose sodium salt (0.2 ml per 10 g). Survived and dead animals were autopsied at day 14 and immediately after the death, respectively.

Acute toxicity in mice = assay type: in vivo; settings: mouse, in vivo, suspension in 0.5% carboxymethylcellulose sodium
Procedure: as §3, §4

O=c1cc(CCN2CCC(c3c[nH]c4ccccc34)CC2)c2ccccc2[nH]1 [III-2, 4-[2-[4-(1H-indol-3-yl)-1-piperidinyl]ethyl]-2-(1H)-quinolinone]
Blood TXA2 before reaction (blood TXA2 [1]; 3 mg/kg orally 1 hour before elicitation, n = 5): 0.26 ± 0.05 ng/mL | Inhibition of blood TXA2 increase (blood TXA2 [1]; 3 mg/kg orally, n = 5): 94.4% | Blood TXA2 after reaction (blood TXA2 [1]; 3 mg/kg orally, n = 5, *p < 0.05 vs. control): 0.28 ng/mL | Inhibition % of experimental asthema in guinea pig [2]: 70.3% | Inhibition of blood TXA2 increase (blood TXA2 [3]; n = 11): 68.7% | Blood TXA2 after reaction (blood TXA2 [3]; n = 11, ***p < 0.001 vs. control): 0.45 ng/mL | inhibition in vivo at 10 mg/kg [4]: 67.4% | inhibition in vivo at 30 mg/kg ([4]; other dosage/kg: 30 mg): 74.6% | inhibition in vivo at 10 mg/kg [5]: 94.8% | inhibition in vivo at 0.1 mg/kg ([5]; other dosage/kg: 0.1 mg): 27.5% | inhibition in vivo at 0.3 mg/kg ([5]; other dosage/kg: 0.3 mg): 84.3% | inhibition in vivo at 1 mg/kg ([5]; other dosage/kg: 1 mg): 73% | inhibition in vivo at 3 mg/kg ([5]; other dosage/kg: 3 mg): 95.5% | Acute toxicity (in words) (Male IcR mice): low toxity | LD50 at 336 h (Acute toxicity in mice; ip, read-out: LD50 for i.p.): > 1000 mg/kg | LD50 at 336 h (Acute toxicity in mice; po, read-out: LD50 for p.o.): > 3000 mg/kg

CN1CCC(=C2c3ccccc3CC(=O)c3sccc32)CC1 [Ketotifen]
Inhibition % of experimental asthema in guinea pig [2]: 50.4%

O=c1[nH]c2ccccc2n1CCCN1CCN(C(c2ccccc2)c2ccccc2)CC1 [Oxatomide, 1-[3-{4-(diphenylmethyl)-1-piperazinyl}propyl]-1,3-dihydro-2H-benzimidazol-2-one]
Inhibition % of experimental asthema in guinea pig [2]: 43.7%

O=c1cc(-c2ccccc2)c2ccccc2n1CCCN1CCC(c2c[nH]c3ccccc23)CC1 [VII-5, 1-[3-[4-(1H-indol-3-yl)-piperidinyl]propyl]-4-phenyl-2(1H)-quinolinone]
inhibition in vivo at 10 mg/kg [4]: 6.7% | inhibition in vivo at 10 mg/kg [5]: 50.1%

O=c1cc(-c2ccc(Cl)cc2)c2ccccc2n1CCCN1CCC(c2c[nH]c3ccccc23)CC1 [VII-6, 4-(4-chlorophenyl)-l-[3-[4-(1H-indol-3-yl)-1-piperidinyl]propyl]-2(1H)-quinolinone]
inhibition in vivo at 10 mg/kg [4]: 9.4% | inhibition in vivo at 10 mg/kg [5]: 19.3%

Cc1ccc(-c2cc(=O)n(CCCN3CCC(c4c[nH]c5ccccc45)CC3)c3ccccc23)cc1 [VII-7, 1-[3-[4-(1H-indol-3-yl)-piperidinyl]propyl]-4-(4-methylphenyl)-2(1H)-quinolinone]
inhibition in vivo at 10 mg/kg [4]: 18.5% | inhibition in vivo at 10 mg/kg [5]: 13.1%
